Source: publication PMC11648681, “Development of machine learning models for the prediction of the skin sensitization potential of cosmetic compounds” (PeerJ, 2024)
Where “and” joins values, the source holds several entries; their conditions need not be identical. Equal values may be shown once. Read-outs that look alike come from different tables or passages of the source.

Legend:
[1] = CCK-8 cell viability of THP-1 cells after 48 h compound treatment in HaCaT/THP-1 co-culture; assay type: cell-based, human; details: human
Description: (§1) The co-culture system was set up according to the following described method. […] THP-1 cells were collected, centrifuged, and re-suspended in fresh RPMI-1640 medium supplemented with 10% FBS at 2 × 10^6 cells/mL. Then cells are distributed into HaCaT-seeded 96 wells plate with 80 μL (1.6 × 10^5 cells/well).
(§2) The compounds listed in Table 1 were dissolved in DMSO to create stock solutions with a concentration of 500 mg/mL. Eleven concentrations were subsequently prepared using two-fold serial dilutions. These stock solutions were then further diluted 250-fold in RPMI-1640 + 10% FBS medium. Finally, 80 μL of the prepared solutions were added 1:1 to the treated 96-well plates and incubated for 48 h at 37 °C and 5% CO2.
(§3) After 48 h of treatment, the treated cells were collected 100 μL cells per well. The supernatant medium was added 10 μL of CCK-8 (Life-iLab, Shanghai, China) solution to each well and incubated the plate in the incubator for 2–4 h. THP-1 cell viability was determined using standard calculation methods.
(§4) The cytotoxicity of 15 test compounds listed in Table 1 was assessed using THP-1 cells across a concentration range of 1,000 to 3.9 μg/mL. Cell viability was assessed after 48 h of treatment using the CCK-8 assay.

THP-1 cells = assay: as above; assay type: cell-based, human; details: for Cell viability / final concentration used (highest concentration that maintained at least 80% cell viability): 48 h; for IC50 (cytotoxicity): 48 h treatment, CCK-8, range 1,000 to 3.9 μg/mL
Description: as §1, §2, §3, §4

[2] = THP-1 cells in co-culture with HaCaT cells, 48 h, THP-1, individual replicate values
[3] = 0.976563 μg/mL, THP-1, individual replicate values
[4] = 1.95312 μg/mL, THP-1, individual replicate values
[5] = 3.90625 μg/mL, THP-1, individual replicate values
[6] = 7.8125 μg/mL, THP-1, individual replicate values
[7] = 15.625 μg/mL, THP-1, individual replicate values
[8] = 62.5 μg/mL, THP-1, individual replicate values
[9] = 125 μg/mL, THP-1, individual replicate values
[10] = 250 μg/mL, THP-1, individual replicate values
[11] = 500 μg/mL, THP-1, individual replicate values
[12] = 1000 μg/mL, THP-1, individual replicate values
[13] = 48 h, THP-1, individual replicate values
[14] = 31.25 μg/mL, THP-1, individual replicate values
[15] = THP-1 cells, CCK-8, single (not double) concentration

| SMILES | viability at 48 h, 31.25 μg/mL ([1]; Cell viability) [%] | viability at 48 h, 0.976563 μg/mL [1, 2] [%] | viability at 48 h, 1.95312 μg/mL [1, 2] [%] | viability at 48 h, 3.90625 μg/mL [1, 2] [%] | viability at 48 h, 7.8125 μg/mL [1, 2] [%] | viability at 48 h, 62.5 μg/mL [1, 2] [%] | viability at 48 h, 125 μg/mL [1, 2] [%] | viability at 48 h, 250 μg/mL [1, 2] [%] | viability at 48 h, 500 μg/mL [1, 2] [%] | viability at 48 h, 1000 μg/mL [1, 2] [%] | Cell viability (THP-1 cells; [3]) | Cell viability (THP-1 cells; [4]) | Cell viability (THP-1 cells; [5]) | Cell viability (THP-1 cells; [6]) | Cell viability (THP-1 cells; [7]) | Cell viability (THP-1 cells; [8]) | Cell viability (THP-1 cells; [9]) | Cell viability (THP-1 cells; [10]) | Cell viability (THP-1 cells; [11]) | Cell viability (THP-1 cells; [12]) | also measured |
| --- | --- | --- | --- | --- | --- | --- | --- | --- | --- | --- | --- | --- | --- | --- | --- | --- | --- | --- | --- | --- | --- |
| Sc1nc2ccccc2s1 [2-mercaptobenzothiazole] | 63.3 | 80.2 | 76.6 | 77.2 | 65.9 | 61.4 | 34.2 | 24.8 | 20.8 | 12.9 | 93.5695% | 85.722% | 80.7937% | 76.7668% | 73.0224% | 73.444% | 34.9417% | 27.3318% | 20.0359% | 12.1659% | viability at 48 h, 15.625 μg/mL [1, 2]: 63.3%; Cell viability (THP-1 cells; human, 31.25 μg/mL): 70.7399% |
| C[S+](C)[O-] [DMSO, Dimethyl sulfoxide] | – | – | – | – | – | – | – | – | – | – | 104.048% and 100.267% | 96% and 94.5143% | 96.1619% and 89.1238% | – | – | – | – | – | 86.8476% and 87.3143% | 91.9905% and 89.9048% | IC50 (cytotoxicity) (THP-1 cells; THP-1 cells): greater than 1,000 μg/mL |
| O=[N+]([O-])c1ccc(Cl)c([N+](=O)[O-])c1 [DNCB, 2,4-dinitrochlorobenzene] | – | – | – | – | – | – | – | – | – | – | 95.0987% | 97.1973% | 71.1839% | 7.332% | 7.211% | 9.193% | 8.767% | 9.112% | 10.9865% | 11.5516% | viability at 48 h, 0.976563 μg/mL [1, 13]: 102%; viability at 48 h, 1.95312 μg/mL [1, 13]: 88.2%; viability at 48 h, 3.90625 μg/mL [1, 13]: 75.9%; viability at 48 h, 7.8125 μg/mL [1, 13]: 6.82%; viability at 48 h, 15.625 μg/mL [1, 13]: 6.91%; viability at 48 h, 31.25 μg/mL ([1]; 31.25 μg/mL, 48 h, THP-1, individual replicate values, read-out: Cell viability): 7.1%; viability at 48 h, 62.5 μg/mL [1, 13]: 7.52%; viability at 48 h, 125 μg/mL [1, 13]: 8.76%; viability at 48 h, 250 μg/mL [1, 13]: 11%; viability at 48 h, 500 μg/mL [1, 13]: 13.4%; viability at 48 h, 1000 μg/mL [1, 13]: 19.9%; Cell viability (THP-1 cells; [14]): 7.274% |
| CC(C)O [IPA, Isopropanol] | – | – | – | – | – | – | – | – | – | – | 106.609% and 97.981% | 97.8095% and 92.5429% | 90.3238% and 89.219% | 92.0495% and 89.6476% | 92.1791% and 88.8381% | 91.3838% and 93% | 92.3943% and 110.771% | 91.0095% and 92.9524% | 91.6191% and 88.9333% | 96.9905% and 96.3619% | Cell viability (THP-1 cells; [14]): 92.0943% and 92.7371%; IC50 (cytotoxicity) (THP-1 cells; THP-1 cells): greater than 1,000 μg/mL |
| CCCCCCCCCCCCOS(=O)(=O)[O-].[Na+] [SDS, Sodium dodecyl sulfate] | – | – | – | – | – | – | – | – | – | – | 99.2381% and 110.076% | 92.6381% and 90.6381% | 73.0476% and 93.5333% | 90.7238% and 93.3905% | 95.4381% and 98.4286% | 37.0381% and 32.0952% | 15.5905% and 18.1809% | 15.9333% and 15.6381% | 15.1524% and 16.781% | 14.1809% and 14.2952% | Cell viability (THP-1 cells; [14]): 85.9333% and 91.0762%; final concentration used (highest concentration that maintained at least 80% cell viability) (THP-1 cells; [15]): 31.25 µg/mL |
| CC(C)(C)c1cc(O)ccc1O [THBQ, Tert-butylhydroquinone] | 103 | 95.9 | 94.8 | 97.4 | 117 | 47.1 | 29.9 | 26.6 | 18.8 | 15.2 | 94.8298% | 95.9362% | 101.759% | 103.546% | 101.22% | 47.234% | 34.2837% | 20.1277% | 18.8014% | 15.3191% | viability at 48 h, 15.625 μg/mL [1, 2]: 104%; final concentration used (highest concentration that maintained at least 80% cell viability) (THP-1 cells; [15]): 31.25 µg/mL; Cell viability (THP-1 cells; human, 31.25 μg/mL): 104.716% |
| N#CCCC(Br)(C#N)CBr (stereo not shown) [bromoml, 1,2-dibromo-2,4-dicyanobutane] | 12 | 97 | 97.1 | 100 | 53.3 | 12.2 | 12.2 | 11.9 | 12.9 | 12.4 | 102.88% | 103.993% | 108.767% | 57.1729% | 14.391% | 11.8195% | 12.0752% | – | 12.3985% | 12.3609% | viability at 48 h, 15.625 μg/mL [1, 2]: 13.3%; final concentration used (highest concentration that maintained at least 80% cell viability) (THP-1 cells; [15]): 3.9 µg/mL; Cell viability (THP-1 cells; human, 31.25 μg/mL): 11.782% |
| O=c1c(-c2ccccc2)c1-c1ccccc1 [diphenylcyclopropenone, Diphenylcyclopropenone] | – | 95.4 | 124 | 36.8 | 21.2 | 26.6 | 28.2 | 29.3 | 30.3 | 30.7 | 95.9291% | 135.468% | 42.1135% | 16.9362% | 18.4255% and 40.305% | 19.5248% | 23.4184% | 23.9858% | 31.4681% | 33.1277% | viability at 48 h, 31.25 μg/mL ([1]; THP-1 cells in co-culture with HaCaT cells, 31.25 μg/mL, 48 h, THP-1, individual replicate values, read-out: Cell viability): 25.4%; Cell viability (THP-1 cells; [14]): 15.5674%; final concentration used (highest concentration that maintained at least 80% cell viability) (THP-1 cells; [15]): 0.98 µg/mL |
| C=CCc1ccc(O)c(OC)c1 [eugenol, Eugenol] | 89.2 | – | – | – | – | – | – | – | – | – | 95.2766% | 82.8227% | 95.5106% | 87.9007% | 89.6454% | 83.0993% | 50.2837% | 13.5816% | 12.3688% | 8.652% and 19.4894% | viability at 48 h, 0.976563 μg/mL [1, 13]: 96.1%; viability at 48 h, 1.95312 μg/mL [1, 13]: 85.9%; viability at 48 h, 3.90625 μg/mL [1, 13]: 94%; viability at 48 h, 7.8125 μg/mL [1, 13]: 89.2%; viability at 48 h, 15.625 μg/mL [1, 13]: 84%; viability at 48 h, 62.5 μg/mL [1, 13]: 96.6%; viability at 48 h, 125 μg/mL [1, 13]: 54.7%; viability at 48 h, 250 μg/mL [1, 13]: 13.4%; viability at 48 h, 500 μg/mL [1, 13]: 19.5%; final concentration used (highest concentration that maintained at least 80% cell viability) (THP-1 cells; human): 31.2 µg/mL; Cell viability (THP-1 cells; human, 31.25 μg/mL): 101.56% |
